In patent US20230124374A1, “COMPOSITIONS AND METHODS FOR EYE HEALTH COMPRISING VERY LONG CHAIN FATTY ACIDS” (BAUSCH + LOMB IRELAND LIMITED, priority 2020, published 2023):

How the values were obtained:
[1] = single-dose bioavailability study, gavage feeding of 32:6 n-3 loaded liposomes, GC-MS of tissue lipids; type: in vivo, wild-type (WT) C57BL/6J mice
Procedure: FIGS. 1A and 1B show wild-type (WT) mice single-dose bioavailability studies: (1A) Serum absorption kinetics of C32 acid (6n-3) (“32:6n-3”) after single-dose gavage feeding of 6 mg/mouse (n=4 mice/time point) and (1B) retina and RPE uptake of 32:6 n-3 after single-dose gavage feeding. No VLCPUFAs were detected in liver, brain, or RBC membranes at any time point. Data are presented as mean±SEM (***P<0.005; **P<0.01; *P<0.05).
Three month old wild-type (WT) C57BL/6J mice (22±3 g) were each gavage fed 6 mg per day of C32 acid (6n-3) (“32:6 n-3”) loaded VLCPUFA liposomes (0.1 mL) (250 mg/kg body weight) prepared as disclosed in Gorusupudi et al. PNAS 118(6), e2017739118 (2021), which is incorporated herein by reference in its entirety. The mice were killed 0, 2, 4, 8, and 24 h after gavage (n=4 mice/time interval) to harvest the blood and other tissues. Eyes were dissected under a microscope to separate the retina from the RPE. One pair of retinas/mouse was used for lipid extraction, and blood was centrifuged for 5 minutes at 7,500 rpm to separate serum from RBCs. Serum, RBCs, brain, liver, retina, and RPE were used for lipid extractions and GC-MS analysis.
(§1) On the other hand, 32:6 n-3 remained undetectable in liver, brain, and red blood cell (RBC) membranes throughout the 24 h period. Longer-term absorption was studied by gavage feeding VLCPUFA-loaded liposomes (0.1 mL) to WT (22±3 g) and conditional KO mice developed with an intention to ablate Elov14 expression completely in both rods and cones (E4cKO mice) (23±3 g) for 15 d with 0, 1, and 2 mg/d 32:6 n-3 (n=6 mice/group). Mice were fed each morning with liposomes prepared as above containing 0 mg/d (0 mg/kg BW), 1 mg/d (40 mg/kg BW), or 2 mg/d (80 mg/kg BW) of 32:6 n-3. Mice were killed at the end of the experiments, and retina, RPE, liver, serum, RBCs, and brain tissues were harvested, extracted for lipids, and analyzed by GC-MS.

[2] = repeated-dose (15 d) bioavailability study, gavage feeding of 32:6 n-3 loaded liposomes, GC-MS of tissue lipids; type: in vivo, WT mice; settings: 15 d gavage
Procedure: FIGS. 2A and 2B show WT mice repeated-dose bioavailability studies: (2A) Accumulation of 32:6 n-3 in mouse retina and RPE after 15 d of gavage feeding (n=6 mice/group) and (2B) Bioaccumulation of 32:6n-3 in serum, RBC, and liver after 15 d of gavage feeding. […] Data are presented as mean±SEM (***P<0.005; **P<0.01; N.S.: not significant; N.D.: not detectable).
as §1

[3] = phospholipid analysis of retina and RPE by LC-MS/MS after 15 days of gavage feeding; type: in vivo, WT mice; settings: 15 days gavage, 2 mg/day, supplemented WT animals
Procedure: FIGS. 3A and 3B show phospholipid analysis of wild type (WT) mice after 15 days of gavage feeding of VLCPUFA 32:6n-3 (2 mg/day): (3A) Retina and (3B) RPE. Data presented as mean±SEM (n=8 mice/group) (p values: *p<0.05; N.S.: not significant; N.D.: not detectable).
(§2) Retina and RPE were extracted for phospholipid analysis using liquid chromatography-tandem MS (LC-MS/MS), and increases in phosphatidylcholine (PC)-22:6/32:6 were detected in the retina and RPE in the supplemented WT animals (FIGS. 3A and 3B). Retinal and RPE 32:6 n-3 levels in the E4cKO mice were one-third and one-half of the levels in the age-matched WT mice, respectively (FIG. 4A).

[4] = long-term uptake of 32:6 n-3 in Elov14 rod-cone conditional KO mice, 15 d gavage feeding; type: in vivo, E4cKO mice; settings: 2 mg/d
Procedure: FIGS. 4A and 4B show long-term uptake of 32:6n-3 (2 mg/d per mouse) in Elov14 rod-cone conditional KO (E4cKO) mice: (4A) Accumulation of 32:6 n-3 in E4cKO mouse retinas and RPE in comparison to age-matched WT mice after 15 d of gavage feeding (n=6 mice/group) and (4B) Accumulation of 32:6n-3 in liver and RBCs in E4cKO mice in comparison to age-matched WT mice after 15 d of gavage feeding. Data are presented as mean±SEM (**P<0.01; N.S.: not significant; N.D.: not detectable).
as §1, §2

[5] = levels as high as 800.0 mg; cited from earlier work
[6] = single gavage dose 6 mg/mouse, 4 to 8 h after gavage
[7] = single gavage dose 6 mg/mouse, throughout the 24 h period
[8] = 32:6 n-3-fed groups versus control mice (undetectable)
[9] = versus undetectable levels at 0 mg/d

## CC/C=C\C/C=C\C/C=C\C/C=C\C/C=C\C/C=C\CCCCCCCCCCCCC(=O)O [32:6 n-3, C32 acid (6n-3)]
[1]; single gavage dose 6 mg/mouse (250 mg/kg), serum
  time after oral administration at which serum 32:6 n-3 became detectable: ≤ 2 h
[1]; [6]
  32:6 n-3 in the RPE: significant increase
  32:6 n-3 in the retina: significant increase
[1]; single gavage dose 6 mg/mouse, serum, over the next 24 h
  serum 32:6 n-3 concentration course: reached a lower steady-state concentration
[1]; [7]
  32:6 n-3 in brain: undetectable
  32:6 n-3 in liver: undetectable
  32:6 n-3 in red blood cell (RBC) membranes: undetectable
[2]
  VLCPUFAs in the brain: no VLCPUFAs were ever detectable
[2]; 1 mg/d group
  total retinal VLCPUFAs: 0.535±0.06%
[2]; 2 mg/d group
  total retinal VLCPUFAs: 0.872±0.10%
[2]; 2 mg/d group (only group with detectable levels)
  32:6 n-3 in the liver: detectable
[2]; [8]
  RBC VLCPUFAs: significantly increased
  serum VLCPUFAs: significantly increased
[2]; both fed groups (1 and 2 mg/d)
  increase of C32 acid (6n-3) level in RPE versus 0 mg/d controls: sevenfold
  increase of C32 acid (6n-3) level in the retina versus 0 mg/d controls: more than twofold
[3]
  phosphatidylcholine (PC)-22:6/32:6 in the RPE: increases
  phosphatidylcholine (PC)-22:6/32:6 in the retina: increases
[4]; 8-mo-old E4cKO mice, P<0.01
  increase of 32:6 n-3 level in the retina relative to control-fed E4cKO mice: nearly fivefold increase
[4]; 8-mo-old E4cKO mice, P=0.001
  increase of 32:6 n-3 level in the RPE relative to control-fed E4cKO mice: 27 fold
[4]; E4cKO mice
  total retinal VLCPUFAs: 0.088±0.02%
[4]; [9]
  RBC 32:6 n-3: became detectable
  liver 32:6 n-3: became detectable

## vitamin E
[5]
  adverse effects: No adverse effects
